Assay results as given in a compilation of properties of binary mixtures (doi:10.1016/j.molliq.2020.112816).

Assay: xn = mol fraction of the nth substance listed
Conditions: 101 kPa

CCCC[n+]1ccn(C)c1.F[B-](F)(F)F + NC=O
x1 = 1
Conditions | speed of sound [m/s] | viscosity [mPa·s]
293.15 K | 1576.8 | 127.6
298.15 K | 1565.7 | 98.9
303.15 K | 1554.4 | 76.3
313.15 K | 1530.5 | 46.2

NC=O + CCCC[n+]1ccn(C)c1.F[B-](F)(F)F
Conditions | speed of sound [m/s] | viscosity [mPa·s]
293.15 K, x2 = 0.0675 | 1614.2 | 4.01
293.15 K, x2 = 0.135 | 1613.4 | 4.81
293.15 K, x2 = 0.2054 | 1611.9 | 7
293.15 K, x2 = 0.4499 | 1602.9 | 24.97
293.15 K, x2 = 0.6639 | 1593.2 | 54.2
293.15 K, x2 = 0.7588 | 1588.7 | 71.4
293.15 K, x2 = 0.8107 | 1586.2 | 81.8
293.15 K, x2 = 0.8626 | 1583.7 | 93.3
293.15 K, x2 = 0.9313 | 1580.3 | 109.6
298.15 K, x2 = 0 | 1602.4 | 3.27
298.15 K, x2 = 0.0675 | 1603 | 3.73
298.15 K, x2 = 0.135 | 1602.3 | 4.65
298.15 K, x2 = 0.2054 | 1600.8 | 6.6
298.15 K, x2 = 0.3629 | 1595.4 | 14.43
298.15 K, x2 = 0.4499 | 1591.8 | 20.95
298.15 K, x2 = 0.5095 | 1589.3 | 26.31
298.15 K, x2 = 0.569 | 1586.6 | 32.4
298.15 K, x2 = 0.6639 | 1582.2 | 43.6
298.15 K, x2 = 0.8626 | 1572.7 | 73.4
298.15 K, x2 = 0.9313 | 1569.3 | 85.6
303.15 K, x2 = 0 | 1590.5 | 2.918
303.15 K, x2 = 0.0675 | 1591.4 | 3.28
303.15 K, x2 = 0.135 | 1590.9 | 4.23
303.15 K, x2 = 0.2054 | 1589.4 | 5.84
303.15 K, x2 = 0.2758 | 1587.2 | 8.24
303.15 K, x2 = 0.3629 | 1584 | 12.35
303.15 K, x2 = 0.5095 | 1578 | 21.66
303.15 K, x2 = 0.569 | 1575.3 | 26.36
303.15 K, x2 = 0.6639 | 1570.9 | 35
303.15 K, x2 = 0.7588 | 1566.5 | 44.9
308.15 K, x2 = 0 | 1578.3 | 2.607
308.15 K, x2 = 0.0675 | 1579.4 | 3.049
308.15 K, x2 = 0.135 | 1579 | 3.99
308.15 K, x2 = 0.2054 | 1577.5 | 5.48
308.15 K, x2 = 0.3629 | 1572.2 | 10.72
308.15 K, x2 = 0.5095 | 1566.2 | 17.95
308.15 K, x2 = 0.569 | 1563.6 | 21.5
308.15 K, x2 = 0.6639 | 1559.3 | 27.92
308.15 K, x2 = 0.7588 | 1554.8 | 35.3
308.15 K, x2 = 0.8107 | 1552.3 | 39.7
308.15 K, x2 = 0.8626 | 1549.8 | 44.5
313.15 K, x2 = 0 | 1565.9 | 2.328
313.15 K, x2 = 0.0675 | 1567.3 | 2.599
313.15 K, x2 = 0.135 | 1567 | 3.4
313.15 K, x2 = 0.2758 | 1563.3 | 6.21
313.15 K, x2 = 0.5095 | 1554.2 | 14.39
313.15 K, x2 = 0.569 | 1551.6 | 17.16
313.15 K, x2 = 0.6639 | 1547.3 | 22.22
313.15 K, x2 = 0.7588 | 1542.9 | 28.02
313.15 K, x2 = 0.8107 | 1540.4 | 31.6
313.15 K, x2 = 0.8626 | 1537.8 | 35.2
313.15 K, x2 = 0.9313 | 1534.3 | 40.4
318.15 K, x2 = 0 | 1553.1 | 2.096
318.15 K, x2 = 0.0675 | 1554.9 | 2.4
318.15 K, x2 = 0.135 | 1554.6 | 2.982
318.15 K, x2 = 0.2054 | 1553 | 3.88
318.15 K, x2 = 0.3629 | 1547.7 | 7.11
318.15 K, x2 = 0.4499 | 1544.2 | 9.72
318.15 K, x2 = 0.5095 | 1541.8 | 11.78
318.15 K, x2 = 0.7588 | 1530.5 | 23.24
318.15 K, x2 = 0.8107 | 1528 | 26.2
318.15 K, x2 = 0.9313 | 1521.9 | 33.8
